According to the supplement of paper PMC8617591:

Columns and labels:
[1] = test system: Mycobacterium tuberculosis Erdman (autoluminescent); assay: total FIC50 (Loewe) at 50% inhibition, three-drug combination (log2); higher = more antagonistic
Protocol: (§1)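 DiaMOND equipotent three-drug combination dose responses (10 doses, 1.5- or 2-fold spacing, centred on IC90) against autoluminescent M. tuberculosis Erdman in 8 in vitro models. Read-out is OD600, or luminescence for the intracellular and dormancy models, normalised to untreated wells. Hill-fit Einf, AUC25 and GRinf are potency metrics; FIC50 and FIC90 are total Loewe fractional inhibitory concentrations as log2 (negative = synergy).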

[2] = test system: Mycobacterium tuberculosis Erdman (autoluminescent); assay: total FIC90 (Loewe) at 90% inhibition, three-drug combination (log2); higher = more antagonistic
Protocol: as §1

[3] = test system: Mycobacterium tuberculosis Erdman (autoluminescent); assay: Einf, fitted maximum growth inhibition of three-drug combination (fraction); higher = stronger maximal inhibition
Protocol: as §1

[4] = test system: Mycobacterium tuberculosis Erdman (autoluminescent); assay: AUC25, normalised area under dose response up to IC25 (three-drug combination) (fraction (0-1)); higher = more potent at low dose
Protocol: as §1

[5] = test system: Mycobacterium tuberculosis Erdman (autoluminescent); assay: GRinf, maximum normalised growth rate inhibition (three-drug combination) (unitless (-1 to 1)); higher = less effect (negative = killing)
Protocol: as §1

COc1nc2ccc(Br)cc2cc1[C@@H](c1ccccc1)[C@@](O)(CCN(C)C)c1cccc2ccccc12 [bedaquiline] + CC(=O)NC[C@H]1CN(c2ccc(N3CCOCC3)c(F)c2)C(=O)O1 [linezolid] + NC(=O)c1cnccn1 [pyrazinamide]
Conditions	AUC25, [4]	Einf, [3]	GRinf, [5]	total FIC50, [1]	total FIC90, [2]
in vitro model: acidic pH 5.7, time point: constant (~7 days, model-specific)	0.076	0.806	-0.494	0.125	–
in vitro model: acidic pH 5.7, time point: terminal (~4-5 doublings, model-specific)	0.0793	0.981	-0.392	0.681	0.133
in vitro model: intracellular J774, time point: constant = terminal	–	0.928	-0.132	–	0.532

Conditions	AUC25, [4]	Einf, [3]	GRinf, [5]	total FIC50, [1]	total FIC90, [2]
in vitro model: butyrate, time point: constant (~7 days, model-specific)	0.101	0.947	-0.127	-0.0949	0.0532
in vitro model: butyrate, time point: terminal (~4-5 doublings, model-specific)	0.0821	0.975	-0.116	-0.166	0.0226
in vitro model: cholesterol 0.05 mM, time point: constant (~7 days, model-specific)	0.142	0.767	-0.355	–	–
in vitro model: cholesterol 0.05 mM, time point: terminal (~4-5 doublings, model-specific)	0.141	0.969	-0.491	0.0813	–
in vitro model: cholesterol-high 0.2 mM, time point: constant (~7 days, model-specific)	0.109	0.967	-0.577	0.197	–
in vitro model: cholesterol-high 0.2 mM, time point: terminal (~4-5 doublings, model-specific)	0.105	1	-0.793	0.121	0.311
in vitro model: dormancy (butyrate + nitrate, low O2), time point: constant (~7 days, model-specific)	0.0774	0.92	0.268	-0.772	-0.755
in vitro model: dormancy (butyrate + nitrate, low O2), time point: terminal (~4-5 doublings, model-specific)	0.0469	0.989	-0.0748	-0.0476	-0.67
in vitro model: standard 7H9 glycerol, time point: constant = terminal	0.0828	0.934	-0.00964	0.406	–
in vitro model: valerate, time point: constant (~7 days, model-specific)	0.0833	0.886	-0.102	0.362	–
in vitro model: valerate, time point: terminal (~4-5 doublings, model-specific)	0.0634	0.942	-0.069	0.455	0.406

COc1nc2ccc(Br)cc2cc1[C@@H](c1ccccc1)[C@@](O)(CCN(C)C)c1cccc2ccccc12 [bedaquiline] + CC(=O)NC[C@H]1CN(c2ccc(N3CCOCC3)c(F)c2)C(=O)O1 [linezolid] + O=[N+]([O-])c1cn2c(n1)OC[C@@H](OCc1ccc(OC(F)(F)F)cc1)C2 [pretomanid]
Conditions	AUC25, [4]	Einf, [3]	GRinf, [5]	total FIC50, [1]	total FIC90, [2]
in vitro model: acidic pH 5.7, time point: constant (~7 days, model-specific)	0.118	0.937	-0.508	0.414	–
in vitro model: acidic pH 5.7, time point: terminal (~4-5 doublings, model-specific)	0.0812	0.992	-0.56	0.58	0.474
in vitro model: intracellular J774, time point: constant = terminal	–	0.99	-0.78	–	1.25

Conditions	AUC25, [4]	Einf, [3]	GRinf, [5]	total FIC50, [1]	total FIC90, [2]
in vitro model: butyrate, time point: constant (~7 days, model-specific)	0.105	0.943	-0.119	0.731	1.49
in vitro model: butyrate, time point: terminal (~4-5 doublings, model-specific)	0.0754	0.97	-0.0976	0.645	0.887
in vitro model: cholesterol 0.05 mM, time point: constant (~7 days, model-specific)	0.136	0.738	-0.284	0.169	–
in vitro model: cholesterol 0.05 mM, time point: terminal (~4-5 doublings, model-specific)	0.141	0.962	-0.303	0.274	0.577
in vitro model: cholesterol-high 0.2 mM, time point: constant (~7 days, model-specific)	0.112	0.948	-0.376	0.197	–
in vitro model: cholesterol-high 0.2 mM, time point: terminal (~4-5 doublings, model-specific)	0.115	1	-0.834	-0.088	0.591
in vitro model: dormancy (butyrate + nitrate, low O2), time point: constant (~7 days, model-specific)	0.0459	0.92	0.23	-0.22	-0.616
in vitro model: dormancy (butyrate + nitrate, low O2), time point: terminal (~4-5 doublings, model-specific)	0.0294	0.988	-0.115	-0.261	-1.1
in vitro model: standard 7H9 glycerol, time point: constant = terminal	0.0809	0.955	-0.108	0.296	0.191
in vitro model: valerate, time point: constant (~7 days, model-specific)	0.139	0.929	-0.172	0.447	1.63
in vitro model: valerate, time point: terminal (~4-5 doublings, model-specific)	0.115	0.958	-0.132	0.00392	1.32

COc1nc2ccc(Br)cc2cc1[C@@H](c1ccccc1)[C@@](O)(CCN(C)C)c1cccc2ccccc12 [bedaquiline] + CC(C)/N=c1\cc2n(-c3ccc(Cl)cc3)c3ccccc3nc-2cc1Nc1ccc(Cl)cc1 [clofazimine] + CC(=O)NC[C@H]1CN(c2ccc(N3CCOCC3)c(F)c2)C(=O)O1 [linezolid]
Conditions	AUC25, [4]	Einf, [3]	GRinf, [5]	total FIC50, [1]	total FIC90, [2]
in vitro model: acidic pH 5.7, time point: constant (~7 days, model-specific)	0.0792	0.874	-0.465	0.0418	–
in vitro model: acidic pH 5.7, time point: terminal (~4-5 doublings, model-specific)	0.0781	0.97	-0.331	0.786	0.299
in vitro model: intracellular J774, time point: constant = terminal	–	0.929	-0.17	–	0.186

Conditions	AUC25, [4]	Einf, [3]	GRinf, [5]	total FIC50, [1]	total FIC90, [2]
in vitro model: butyrate, time point: constant (~7 days, model-specific)	0.0701	0.947	-0.105	0.0722	-0.55
in vitro model: butyrate, time point: terminal (~4-5 doublings, model-specific)	0.0486	0.977	-0.115	0.112	-0.466
in vitro model: cholesterol 0.05 mM, time point: constant (~7 days, model-specific)	0.14	0.769	-0.304	-0.461	–
in vitro model: cholesterol 0.05 mM, time point: terminal (~4-5 doublings, model-specific)	0.137	0.951	-0.374	-0.129	-0.783
in vitro model: cholesterol-high 0.2 mM, time point: constant (~7 days, model-specific)	0.0852	0.944	-0.281	-0.437	-0.594
in vitro model: cholesterol-high 0.2 mM, time point: terminal (~4-5 doublings, model-specific)	0.0962	0.999	-0.488	-0.195	-0.484
in vitro model: dormancy (butyrate + nitrate, low O2), time point: constant (~7 days, model-specific)	0.0703	0.913	0.219	-0.36	-0.911
in vitro model: dormancy (butyrate + nitrate, low O2), time point: terminal (~4-5 doublings, model-specific)	0.0497	0.99	-0.161	-0.24	-0.848
in vitro model: standard 7H9 glycerol, time point: constant = terminal	0.0911	0.962	-0.0979	-0.27	-0.871
in vitro model: valerate, time point: constant (~7 days, model-specific)	0.134	0.931	-0.127	0.0537	-0.00887
in vitro model: valerate, time point: terminal (~4-5 doublings, model-specific)	0.0869	0.944	-0.0541	0.263	1.19
